We go through three molecules from publication PMC5978685, “Design, Synthesis, and Evaluation of Novel Immunomodulatory Small Molecules Targeting the CD40–CD154 Costimulatory Protein-Protein Interaction” (Molecules : A Journal of Synthetic Chemistry and Natural …, 2018).

Read-outs that look alike come from different tables or passages of the source.

Data set [1] concerns the target T1, CD40–CD154 (CD40L) (Homo sapiens, UniProt P29965).
T1 construct: purchased Enzo Life Sciences
T1 sequence (P29965 116-261 limits assumed): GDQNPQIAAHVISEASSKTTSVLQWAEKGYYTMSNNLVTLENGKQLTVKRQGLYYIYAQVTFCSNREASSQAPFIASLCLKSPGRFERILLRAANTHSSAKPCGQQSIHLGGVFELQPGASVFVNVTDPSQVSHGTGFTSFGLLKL
Description: cell-free ELISA-type binding inhibition assay, CD40–CD154. Particulars: for IC50: cell-free CD40–CD154 binding inhibition, read-out: CD40 IC50; for selectivity toward CD40–CD154 against all other PPIs tested: vs OX40–OX40L, BAFFR–BAFF, TNF-R1–TNF-α. An excerpt:
As a first assessment, the CD40–CD154 inhibitory activity of compounds 6–19 (Figure 2, Table 1) was quantified using a cell-free in vitro binding inhibition assay as described before. Data fitted with typical sigmoidal concentration dependence curves (log inhibitor versus response model in GraphPad Prism, Hill slope n = 1) are summarized in Figure 3A. […] Polymolecular conglomeration and/or aggregation is often a cause of promiscuous inhibition in screening assays. Therefore, just as in our previous work, we checked for this, and we confirmed for several compounds that inhibition due to aggregation is not the case by retesting inhibitory activity in the presence of a non-ionic detergent (Triton-X 100, 0.01%) as recommended for the detection of such effects.
(§1) Binding inhibition assays were performed in a 96-well cell-free format as described before. Briefly, microtiter plates (Nunc F Maxisorp, 96-well; Thermo Fisher Scientific, Waltham, MA, USA) were coated overnight at 4 °C with 100 μL/well of Fc-conjugated receptors diluted in PBS pH 7.2. This was followed by blocking with 200 μL/well of blocking solution (PBS pH 7.2, 0.05% Tween-20, 1% BSA) for 1 h at RT. Then, plates were washed twice using washing solution (PBS pH 7.4, 0.05% Tween-20) and tapped dry before the addition of the appropriate FLAG tagged ligands along with different concentrations of tested dyes diluted in binding buffer (100 mM HEPES, 0.005% BSA pH 7.2) to give a total volume of 100 μL/well. After 1 h incubation, three washes were conducted, and anti-FLAG HRP conjugate was used to detect the bound FLAG-tagged ligand. Plates were washed four times before the addition of 120 μL/well of HRP substrate TMB (3,3′,5,5′-tetramethylbenzidine) and kept in the dark for up to 15 min. The reaction was stopped using 30 μL of 1M H2SO4, and the absorbance value was read at 450 nm. The concentrations of receptors used were 0.3 μg/mL for CD40, TNF-R1, and BAFFR; 0.6 μg/mL for OX40. The concentrations of the ligands were fixed at 0.02 μg/mL for CD154 and TNF-α, 0.06 μg/mL for OX40L, and 0.03 μg/mL for BAFF. These values were selected following preliminary testing to optimize response (i.e., to produce a high-enough signal at conditions close to half-maximal response, EC50). […] To verify that inhibition is not due to colloidal aggregation, CD40 binding inhibition was also measured in the presence of the non-ionic detergent Triton-X 100 (0.01%), as recommended for the detection of such effects.
(§2) All binding inhibition and cell assays were tested in duplicate or triplicate per plates, and assays were performed as at least three independent experiments. As before, binding and cytotoxicity data were converted to percent inhibition and fitted with standard log inhibitor vs. normalized response models using nonlinear regression in GraphPad Prism (GraphPad, La Jolla, CA, USA) to establish half-maximal (median) inhibitory concentration (IC50) or median lethal concentration (LC50) values. Cell assay data were fitted with a similar model that also allowed for a variable slope using the log inhibitor vs. normalized response (variable slope) model from Prism with a Hill slope (n) shared across all compounds. Cell assays and draining lymph node data were analyzed by one-way repeated-measures analysis of variance (ANOVA) followed by Dunnett’s multiple comparison test as a post hoc test for individual differences using GraphPad Prism and a significance level of p < 0.05 for all comparisons.
(§3) Data are (counterclockwise) for human CD40–CD154 (CD40L) (A); OX40–OX40L (B); BAFFR–BAFF (C); and TNF-R1–TNFα (D) and were fitted with standard binding curves. Data are average ± SD (normalized to percent binding) for n = 3 independent experiments with duplicates for each condition.
A general note: An ELISA detects its analyte on a solid surface through an enzyme-linked reagent.

In a further data set the target is T2, OX40–OX40L (Homo sapiens, UniProt P23510).
T2 construct: purchased Enzo Life Sciences
T2 sequence (P23510 51-183 limits assumed): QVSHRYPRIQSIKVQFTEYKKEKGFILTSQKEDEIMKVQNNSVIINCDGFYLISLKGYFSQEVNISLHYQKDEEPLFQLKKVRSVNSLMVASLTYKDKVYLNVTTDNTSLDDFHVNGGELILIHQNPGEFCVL
As to the kind of experiment: cell-free ELISA-type binding inhibition assay, OX40–OX40L. As to the method:
(§4) In parallel with the CD40–CD154 assay, the ability of these compounds to inhibit other TNFSFR–TNFSF PPIs, including OX40–OX40L, BAFFR–BAFF, and TNF-R1–TNF-α, was also assessed (Figure 3B–D).
as §1, §2, §3

The target in a further data set is T3, BAFFR–BAFF (Homo sapiens, UniProt Q9Y275).
T3 construct: purchased Enzo Life Sciences
As to the kind of experiment: cell-free ELISA-type binding inhibition assay, BAFFR–BAFF. The method, then: as §4, §1, §2, §3

In the next data set the target is T4, TNF-R1–TNFα (Homo sapiens, UniProt P01375).
T4 construct: purchased Enzo Life Sciences
Description: cell-free ELISA-type binding inhibition assay, TNF-R1–TNFα. The method, then:
as §4, §1, §2, §3

The target in data set [2] is T1, CD40–CD154 (CD40L). Further details: method as in PMID 29024591. Particulars: 95% CI of 235–401; read-out: CD40–CD154 IC50 (previous assessment); cited from earlier work.
Data set [3] in a line: MTS cytotoxicity assay in HEK Blue cells. It is filed as cell-based. Particulars: human, HEK Blue CD40 sensor cells; HEK Blue cells, 24 h; read-out: LC50 (cytotoxicity, MTS).
Description: (§5) As further confirmation of the inhibitory activity of our compounds, a cell-based assay was used with sensor cells (HEK Blue CD40) containing a secreted embryonic alkaline phosphatase (SEAP) reporter gene under the control of a promoter fused to a NF-κB binding site and transfected with CD40. […] For all tested compounds, the corresponding IC50 values are higher than those determined in the cell-free binding inhibition assay (Table 1) representing a loss of activity which is likely due to non-specific binding on account of the presence of proteins and cells in the assay, as well as hydrophobicity-related problems. Cytotoxicities were also evaluated in these same cells and at the same concentrations using a standard MTS assay to ensure that effects are present at non-toxic concentration levels.
(§6) For the MTS assay, HEK Blue cells were cultured and prepared in the same manner as in the CD40 sensor assay. Then cells were added to a 96-well microtiter plate at a density of 50,000 cells/well in the absence or presence of various concentrations of compounds diluted in the same media, without the addition of CD154. The plate was incubated at 37 °C for 24 h. 20 µL per well of MTS, 3-(4,5-dimethylthiazol-2-yl)-5-(3-carboxymethoxyphenyl)-2-(4-sulfophenyl)-2H-tetrazolium, (Promega, Madison, WI, USA) was added to the culture after treatments, and cells were incubated at 37 °C for 4 h. Formazan levels were measured using a plate reader at 490 nm.
as §2

In a further data set the test system is HEK Blue cells. Description: MTS cytotoxicity assay in HEK Blue cells. Type of data set: cell-based. Particulars: LC50 (MTS) / NF-κB IC50 in sensor cells.
Description: as §5, §6, §2
For orientation: Tetrazolium assays rely on reduction of a dye to a coloured formazan, in cell work by metabolically active cells.

The mark [4] stands for this setting: cell-free TNF-R1–TNFα binding inhibition, read-out: TNF IC50.

T3 sequence (Q9Y275 134-285 limits assumed): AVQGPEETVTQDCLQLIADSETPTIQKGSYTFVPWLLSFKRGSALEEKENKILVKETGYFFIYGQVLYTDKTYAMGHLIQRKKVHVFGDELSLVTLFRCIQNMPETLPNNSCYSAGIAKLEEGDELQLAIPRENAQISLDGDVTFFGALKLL
T4 sequence (P01375 85-233 limits assumed): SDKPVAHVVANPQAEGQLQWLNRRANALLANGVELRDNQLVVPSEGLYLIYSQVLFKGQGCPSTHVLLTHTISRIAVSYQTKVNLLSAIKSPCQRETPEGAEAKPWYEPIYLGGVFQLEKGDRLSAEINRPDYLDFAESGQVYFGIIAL

The term IC50 denotes the concentration needed to halve the response being measured. As to `O=C(Nc1ccc(-c2ccc(C(=O)Nc3cccc4cccc(S(=O)(=O)O)c34)cc2)cc1)c1ccc([N+](=O)[O-])cc1` [Compound 6, 8-(4′-(4-Nitrobenzamido)biphenyl-4-ylcarboxamido)naphthalene-1-sulfonic acid], the IC50 at CD40–CD154 (CD40L) [1] is 0.087 µM; at OX40–OX40L, 318 µM; on BAFFR–BAFF it was 0.328 µM; at TNF-R1–TNFα (setting [4]), above 1000 µM; at CD40–CD154 (CD40L) [2], 0.307 µM.
Consider `COC(=O)c1ccc(-c2ccc(C(=O)Nc3ccc(-c4ccc(C(=O)Nc5cccc6cccc(S(=O)(=O)O)c56)cc4)cc3)cc2)cc1` [Compound 15, 8-(4′-(4′-(Methoxycarbonyl)-[1,1′-biphenyl]-4-carboxamido)-[1,1′-biphenyl]-4-carboxamido)naphthalene-1-sulfonic acid], for which the IC50 was found to be 0.019 µM on CD40–CD154 (CD40L) [1]; 1.01 µM on OX40–OX40L; 1.52 µM at BAFFR–BAFF; 26.5 µM at TNF-R1–TNFα (setting [4]); 26.5 µM on TNF-R1–TNFα (cell-free binding inhibition, read-out: TNF-R1–TNF IC50). Further, the results for the “selectivity toward CD40–CD154 against all other PPIs tested” value at CD40–CD154 (CD40L) [1] and on CD40–CD154 (CD40L) [1] (listed as DRI-C21095) were above 30 fold and “more than thirty-fold”, respectively.
In the case of `O=C(Nc1ccc(-c2ccc(C(=O)Nc3cccc4cccc(S(=O)(=O)O)c34)cc2)nc1)c1ccc([N+](=O)[O-])cc1` [Compound 18, 8-(4-(5-(4-Nitrobenzamido)pyridin-2-yl)benzamido)naphthalene-1-sulfonic acid], the IC50 at CD40–CD154 (CD40L) [1] was found to be 1.34 µM; at OX40–OX40L, 5.48 µM; at BAFFR–BAFF, 8.07 µM; at TNF-R1–TNFα (setting [4]) it was 46.9 µM. In data set [3], the CC50 at 24 h was found to be 131 µM. In the data set on HEK Blue cells, the “therapeutic index, TI = LC50/IC50” value came to 15.
